pIC50: −log10 of the molar value. Active and inactive are the calls of the source. No cut-off for these calls is given here.
Columns and labels:
[1] = target: RAC-alpha serine/threonine-protein kinase (Homo sapiens) (UniProt P31749); assay: Inhibition of recombinant Akt1 (unknown origin) incubated for 1 hr by Z'Lyte assay
[2] = target: T1, 3-phosphoinositide-dependent protein kinase 1 (Homo sapiens, UniProt O15530); assay: Inhibition of PDK1 (unknown origin) incubated for 1 hr by Z'Lyte assay
T1 sequence (O15530 whole entry): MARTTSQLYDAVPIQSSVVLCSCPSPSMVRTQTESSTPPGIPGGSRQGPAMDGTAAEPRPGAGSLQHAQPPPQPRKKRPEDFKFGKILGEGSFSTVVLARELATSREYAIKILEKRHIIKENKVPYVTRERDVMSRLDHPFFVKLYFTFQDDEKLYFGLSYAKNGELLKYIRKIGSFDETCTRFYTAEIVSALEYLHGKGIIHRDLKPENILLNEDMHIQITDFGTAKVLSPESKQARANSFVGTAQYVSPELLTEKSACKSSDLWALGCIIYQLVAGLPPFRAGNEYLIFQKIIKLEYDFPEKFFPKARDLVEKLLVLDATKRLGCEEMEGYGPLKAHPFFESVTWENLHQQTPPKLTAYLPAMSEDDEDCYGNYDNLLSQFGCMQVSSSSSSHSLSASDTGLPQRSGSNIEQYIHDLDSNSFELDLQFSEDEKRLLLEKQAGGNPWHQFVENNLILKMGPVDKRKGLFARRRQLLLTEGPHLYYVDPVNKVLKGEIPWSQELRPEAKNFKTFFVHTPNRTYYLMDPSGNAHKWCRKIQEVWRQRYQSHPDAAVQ

ASPC1 = assay: Cytotoxicity against human AsPC1 cells assessed as cell viability 10 uM after 72 hrs by cell counting analysis relative to control; type: functional
U-118-MG = assay: Antiproliferative activity against human U118MG cells assessed as inhibition of cell growth at 100 uM after 72 hrs by WST1 assay; type: functional, cell-based

RAC-alpha serine/threonine-protein kinase (Homo sapiens), sequence (P31749 whole entry): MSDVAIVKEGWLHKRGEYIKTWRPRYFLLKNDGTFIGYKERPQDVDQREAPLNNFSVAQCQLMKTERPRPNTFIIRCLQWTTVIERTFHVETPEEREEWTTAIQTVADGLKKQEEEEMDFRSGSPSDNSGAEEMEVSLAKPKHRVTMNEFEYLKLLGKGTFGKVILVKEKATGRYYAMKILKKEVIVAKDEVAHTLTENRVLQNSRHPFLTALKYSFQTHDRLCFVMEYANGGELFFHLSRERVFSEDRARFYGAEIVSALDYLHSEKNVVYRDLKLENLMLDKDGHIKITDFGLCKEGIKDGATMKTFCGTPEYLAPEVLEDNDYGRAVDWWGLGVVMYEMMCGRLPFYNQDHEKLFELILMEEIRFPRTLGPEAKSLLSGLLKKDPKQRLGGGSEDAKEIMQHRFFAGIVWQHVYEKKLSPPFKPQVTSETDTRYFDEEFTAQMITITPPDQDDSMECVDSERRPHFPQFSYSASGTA

CS(=O)(=O)Nc1ccc2c(c1)/C(=C/c1cnc[nH]1)C(=O)N2
inhibition [1]: inactive
pIC50 [2]: 6.51
Activity (ASPC1): 73.83%

CSc1ccc(NC(=O)Nc2ccc3c(c2)/C(=C\c2nccn2C)C(=O)N3)cc1
Activity (ASPC1): 95.13%

Cn1ccnc1/C=C1/C(=O)Nc2ccc(NS(C)(=O)=O)cc21
Activity (ASPC1): 96.23%

COc1ccc(CNS(=O)(=O)c2ccc3c(c2)/C(=C\c2nccn2C)C(=O)N3)cc1OC
Activity (ASPC1): 84.5%

Cn1nnc2c(C(N)=O)ncn2c1=O
growth inhibition (GI) (U-118-MG): inactive

CSc1ccc(NC(=O)Nc2ccc3c(c2)/C(=C/c2cnc[nH]2)C(=O)N3)cc1
Activity (ASPC1): 82.94%

COc1ccc(CNCC(=O)Nc2ccc3c(c2)/C(=C/c2cccs2)C(=O)N3)cc1OC
Activity (ASPC1): 86.75%

COc1cc2c(cc1OC)CN(CC(=O)Nc1ccc3c(c1)/C(=C\c1nccn1C)C(=O)N3)CC2
Activity (ASPC1): 82.34%

CS(=O)(=O)c1ccc(NC(=O)Nc2ccc3c(c2)/C(=C/c2cnc[nH]2)C(=O)N3)cc1
Activity (ASPC1): 82.21%

CS(=O)(=O)c1ccc(NC(=O)Nc2ccc3c(c2)/C(=C/c2cccs2)C(=O)N3)cc1
Activity (ASPC1): 93.88%

CSc1ccc(NC(=O)Nc2ccc3c(c2)/C(=C/c2cccs2)C(=O)N3)cc1
Activity (ASPC1): 77.29%

COc1ccc(CNS(=O)(=O)c2ccc3c(c2)/C(=C/c2cccs2)C(=O)N3)cc1OC
Activity (ASPC1): 84.18%

COc1cc2c(cc1OC)CN(CC(=O)Nc1ccc3c(c1)/C(=C/c1cccs1)C(=O)N3)CC2
Activity (ASPC1): 82.04%

Cn1ccnc1/C=C1/C(=O)Nc2ccc(NC(=O)Nc3ccc(S(C)(=O)=O)cc3)cc21
Activity (ASPC1): 90.57%

CS(=O)(=O)Nc1ccc2c(c1)/C(=C/c1cccs1)C(=O)N2
inhibition [1]: inactive
pIC50 [2]: 5.17
Activity (ASPC1): 68.06%
